From ChEMBL document CHEMBL4002544, “Design, synthesis and cytotoxic activity of certain novel chalcone analogous compounds” (Eur J Med Chem, 2017)

Columns and labels:
HepG2 = test: Antiproliferative activity against human HepG2 cells after 48 hrs by SRB assay; assay type: functional, cell-based; settings: HepG2, 48 h
MCF7 [1] = test: Potency index, ratio of colchicine IC50 to compound IC50 for human MCF7 cells; assay type: functional
[2] = target: Tubulin beta-5 chain (Homo sapiens) (UniProt P07437); test: Inhibition of tubulin beta polymerization in human HepG2 cells after 18 to 24 hrs by spectrophotometric method relative to control; assay type: cell-based; design: concentration or dose not given beside the values; settings: concentration not given here
Chain of Tubulin beta-5 chain (Homo sapiens) (P07437 whole entry): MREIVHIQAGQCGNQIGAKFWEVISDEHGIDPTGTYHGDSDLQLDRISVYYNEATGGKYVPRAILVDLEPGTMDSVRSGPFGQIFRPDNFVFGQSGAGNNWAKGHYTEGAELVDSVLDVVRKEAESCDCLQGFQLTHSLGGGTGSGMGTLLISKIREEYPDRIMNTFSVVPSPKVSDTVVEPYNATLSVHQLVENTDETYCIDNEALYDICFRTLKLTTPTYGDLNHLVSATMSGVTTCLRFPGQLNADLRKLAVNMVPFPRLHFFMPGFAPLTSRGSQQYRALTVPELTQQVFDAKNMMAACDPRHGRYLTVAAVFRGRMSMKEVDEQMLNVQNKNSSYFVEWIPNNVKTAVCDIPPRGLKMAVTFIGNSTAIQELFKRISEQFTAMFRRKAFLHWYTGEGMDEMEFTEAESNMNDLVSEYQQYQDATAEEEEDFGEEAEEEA

MCF7 [3] = test: Antiproliferative activity against human MCF7 cells after 48 hrs by SRB assay; assay type: functional, cell-based; settings: MCF7, 48 h
[4] = Selectivity ratio of IC50 for mouse AML-12 cells to IC50 for human HepG2 cells
[5] = Cytotoxicity against mouse AML-12 cells by MTT assay; assay type: cell-based; settings: AML12
[6] = target: Tubulin beta-5 chain (Homo sapiens) (UniProt P07437); test: Inhibition of tubulin beta polymerization in human MCF7 cells after 18 to 24 hrs by spectrophotometric method relative to control; assay type: cell-based; design: concentration or dose not given beside the values; settings: concentration not given here
[7] = Selectivity ratio of IC50 for human Hs 371.T cells to IC50 for human MCF7 cells
[8] = Cytotoxicity against human Hs 371.T cells by MTT assay; assay type: cell-based

In the case of `COc1ccc(C2=CC(c3ccc(Br)cc3)NC(=S)N2)cc1` (stereo unspecified), the IC50 (HepG2) is reported as 30 nM, the “Ratio IC50” value (MCF7 [1]) is reported as 2 and the inhibition [2] is reported as 91.4%. The IC50 (MCF7 [3]) was 126 nM.

In the case of `COc1cccc(C2=CC(c3ccc(Br)cc3)NC(=S)N2)c1` (stereo unspecified), the IC50 (HepG2) is reported as 34 nM, the “Ratio IC50” value (MCF7 [1]) is reported as 2 and the IC50 (MCF7 [3]) is reported as 135 nM.

In the case of `COc1cccc(C2=NNC(c3ccc(Cl)cc3)C2O)c1` (stereo unspecified), the IC50 (HepG2) is reported as 35.3 nM and the IC50 (MCF7 [3]) is reported as 49 nM.

In the case of `COc1cc(C2=CC(c3ccc(Br)cc3)NC(=S)N2)cc(OC)c1OC` (stereo unspecified), the IC50 (HepG2) is reported as 9.5 nM, the “Ratio IC50” value (MCF7 [1]) is reported as 2 and the inhibition [2] is reported as 92.8%. The “Ratio IC50” value [4] was 2.5 - 9, the IC50 [5] was 59.4 nM and the IC50 (MCF7 [3]) was 77 nM.

`COc1cccc(C2=NNC(c3ccc(Br)cc3)C2O)c1` (stereo unspecified) gave an IC50 (HepG2) of 43 nM and an IC50 (MCF7 [3]) of 49 nM.

With `COc1ccc(C2C=C(c3cc(OC)c(OC)c(OC)c3)NC(=S)N2)cc1` (stereo unspecified) the IC50 (HepG2) was 90 nM, the “Ratio IC50” value (MCF7 [1]) was 2 and the IC50 (MCF7 [3]) was 103 nM.

In the case of `COc1cccc(C(=O)C2SC2c2ccc(Cl)cc2)c1` (stereo unspecified), the IC50 (HepG2) is reported as 13 nM, the inhibition [2] is reported as 88.6% and the inhibition [6] is reported as 89.3%. The IC50 (MCF7 [3]) was 15 nM.

With `COc1cccc(C2=NN(c3ccccc3)C(c3ccc(Br)cc3)C2O)c1` (stereo unspecified) the IC50 (HepG2) was 9.9 nM, the “Ratio IC50” value [7] was 2.5 - 9 and the IC50 [8] was 474 nM. The inhibition [2] was 84.6%, the “Ratio IC50” value [4] was 2.5 - 9 and the IC50 [5] was 26.9 nM. The inhibition [6] was 87.8% and the IC50 (MCF7 [3]) was 11 nM.

With `COc1cccc(C2=CC(c3ccc(Cl)cc3)NC(=S)N2)c1` (stereo unspecified) the IC50 (HepG2) was 54 nM, the “Ratio IC50” value (MCF7 [1]) was 2 and the inhibition [2] was 90.6%. The IC50 (MCF7 [3]) was 150 nM.

`COc1cc2c(c(OC)c1OC)-c1ccc(OC)c(=O)cc1[C@@H](NC(C)=O)CC2` [COLCHICINE] gave an IC50 (HepG2) of 124 nM, an IC50 [8] of 443 nM and an IC50 [5] of 138 nM. The IC50 (MCF7 [3]) was 150 nM.

For `COc1cccc(C2=NN(c3ccccc3)C(c3ccc(Cl)cc3)C2O)c1` (stereo unspecified), the IC50 (HepG2) was 11 nM, the “Ratio IC50” value [7] was 2.5 - 9 and the IC50 [8] was 86.7 nM. The inhibition [2] was 93%, the “Ratio IC50” value [4] was 2.5 - 9 and the IC50 [5] was 74.1 nM. The inhibition [6] was 92.3% and the IC50 (MCF7 [3]) was 9.7 nM.

In the case of `COc1cc(C2=CC(c3ccc(Cl)cc3)NC(=S)N2)cc(OC)c1OC` (stereo unspecified), the IC50 (HepG2) is reported as 11 nM, the “Ratio IC50” value (MCF7 [1]) is reported as 2 and the inhibition [2] is reported as 92.4%. The “Ratio IC50” value [4] was 2.5 - 9, the IC50 [5] was 88.5 nM and the IC50 (MCF7 [3]) was 120 nM.

`COc1ccc(C2=NN(c3ccccc3)C(c3ccc(F)cc3)C2O)cc1` (stereo unspecified) gave an IC50 (HepG2) of 13 nM and an IC50 (MCF7 [3]) of 16 nM.

In the case of `COc1cc(C2=CC(c3ccc(F)cc3)NC(=S)N2)cc(OC)c1OC` (stereo unspecified), the IC50 (HepG2) is reported as 61.9 nM, the “Ratio IC50” value (MCF7 [1]) is reported as 2 and the IC50 (MCF7 [3]) is reported as 125 nM.

For `COc1cccc(C(=O)C2SC2c2ccc(Br)cc2)c1` (stereo unspecified), the IC50 (HepG2) was 11 nM, the inhibition [2] was 85.7% and the IC50 (MCF7 [3]) was 23 nM.

In the case of `COc1cccc(C(=O)C(O)C(Nc2ccc(F)c(Cl)c2)c2ccc(Br)cc2)c1` (stereo unspecified), the IC50 (HepG2) is reported as 37.2 nM, the “Ratio IC50” value [7] is reported as 2.5 - 9 and the IC50 [8] is reported as 90.2 nM. For the same compound, the inhibition [2] was 88.5%, the inhibition [6] was 92.2% and the IC50 (MCF7 [3]) was 9.9 nM.

For `COc1cccc(C(=O)C2OC2c2ccc(F)cc2)c1` (stereo unspecified), the IC50 (HepG2) was 17 nM, the “Ratio IC50” value (MCF7 [1]) was 10 and the inhibition [6] was 88.4%. It also gave an IC50 (MCF7 [3]) of 14 nM.

Work on `COc1ccc(C2=NN(c3ccccc3)C(c3ccc(OC)cc3)C2O)cc1` (stereo unspecified) yielded an IC50 (HepG2) of 10.2 nM and an IC50 (MCF7 [3]) of 19 nM.

Work on `COc1ccc(C(=O)C2OC2c2ccc(Cl)cc2)cc1` (stereo unspecified) yielded an IC50 (HepG2) of 15 nM and an IC50 (MCF7 [3]) of 26 nM.
